In publication PMC10514301 (Signal Transduction and Targeted Therapy, 2023):

Experiments:
[1] = system: SARS-CoV-2 Omicron BA.1 variant; assay: Antiviral activity against SARS-CoV-2 Omicron BA.1 in Vero E6 cells (qRT-PCR); format: cell-based
[2] = system: SARS-CoV-2 Omicron BA.5 variant; assay: Antiviral activity against SARS-CoV-2 Omicron BA.5 in HEK293T-hACE2-TMPRSS2 cells (qRT-PCR); format: cell-based; settings: Severe acute respiratory syndrome coronavirus 2, 24 h; read-out: EC50 mean ± sd, HEK293T-ACE2-T2, Omicron BA.5
[3] = system: SARS-CoV-2 Omicron BA.1 variant; assay: Antiviral activity against SARS-CoV-2 Omicron BA.1 in HEK293T-hACE2-TMPRSS2 cells (qRT-PCR); format: cell-based; settings: Severe acute respiratory syndrome coronavirus 2, 24 h; read-out: EC50 mean ± sd, HEK293T-ACE2-T2, Omicron BA.1
SARS-CoV-2 Delta variant [4] = assay: Antiviral activity against SARS-CoV-2 Delta in HEK293T-hACE2-TMPRSS2 cells (qRT-PCR); format: cell-based; settings: Severe acute respiratory syndrome coronavirus 2, 24 h; read-out: EC50 mean ± sd, HEK293T-ACE2-T2, Delta
[5] = system: SARS-CoV-2 Omicron BA.5 variant; assay: Antiviral activity against SARS-CoV-2 Omicron BA.5 in Vero E6 cells (qRT-PCR); format: cell-based
SARS-CoV-2 Delta variant [6] = assay: Antiviral activity against SARS-CoV-2 Delta in Vero E6 cells (viral RNA copies, qRT-PCR); format: cell-based
SARS-CoV-2 Delta variant [7] = format: in vivo, K18-hACE2 mice
[8] = system: SARS-CoV-2 variants (Delta, Omicron BA.1, and Omicron BA.5), HCoV-OC43, and HCoV-229E; assay: organism not typed; format: cell-based; settings: read-out: half-maximal effective concentrations (EC50), range over HCoVs and cell lines
[9] = Severe acute respiratory syndrome coronavirus 2, Vero C1008, 24 h, read-out: EC50 mean ± sd, Vero E6, Omicron BA.1
[10] = Severe acute respiratory syndrome coronavirus 2, Vero C1008, 24 h, read-out: EC50 mean ± sd, Vero E6, Omicron BA.5
[11] = Severe acute respiratory syndrome coronavirus 2, Vero C1008, 24 h, read-out: EC50 mean ± sd, Vero E6, Delta

| Structure (SMILES) | EC50 [1, 9] | EC50 [2] | EC50 [3] | EC50 (SARS-CoV-2 Delta variant [4]) | EC50 [5, 10] | EC50 (SARS-CoV-2 Delta variant [6]; [11]) | expression of IL-6 and CCL2 in the lungs (SARS-CoV-2 Delta variant [7]; initial days (day 2)) | reduction of lung viral loads compared to the vehicle group (SARS-CoV-2 Delta variant [7]; oral BID, […], VV116 50 and 100 mpk, nirmatrelvir 100 mpk with ritonavir 50 mpk, Combo = VV116 50 + nirmatrelvir 100 + ritonavir 50 mpk) | EC50 ([1]; Severe acute respiratory syndrome coronavirus 2, Vero C1008, Vero E6 cells, read-out: EC50 against the SARS-CoV-2 Omicron BA.1 variant in Vero E6 cells) | EC50 ([5]; Severe acute respiratory syndrome coronavirus 2, Vero C1008, Vero E6 cells, read-out: EC50 against Omicron BA.5) | EC50 (SARS-CoV-2 Delta variant [6]; Severe acute respiratory syndrome coronavirus 2, Vero C1008, Vero E6 cells, read-out: EC50 against the SARS-CoV-2 Delta variant in Vero E6 cells) | EC50 [8] |
| --- | --- | --- | --- | --- | --- | --- | --- | --- | --- | --- | --- | --- |
| N#C[C@@]1(c2ccc3c(N)ncnn23)O[C@H](CO)[C@@H](O)[C@H]1O [GS-441524] | 280 ± 11 nM | 750 ± 64 nM | 380 ± 40 nM | 250 ± 140 nM | 100 ± 11 nM | 610 ± 79 nM |  |  |  |  |  |  |
| CC(C)(C)[C@H](NC(=O)C(F)(F)F)C(=O)N1C[C@H]2[C@@H]([C@H]1C(=O)N[C@H](C#N)C[C@@H]1CCNC1=O)C2(C)C [Nirmatrelvir, nirmatrelvir] |  |  |  |  |  |  | reduction | 1–2 log |  |  |  |  |
| CCC(CC)COC(=O)[C@H](C)N[P@](=O)(OC[C@H]1O[C@@](C#N)(c2ccc3c(N)ncnn23)[C@H](O)[C@@H]1O)Oc1ccccc1 [RDV, remdesivir] |  |  |  |  |  |  |  |  | 540 nM | 130 nM | 2200 nM |  |
| [2H]c1cc([C@]2(C#N)O[C@H](CO)[C@@H](O)[C@H]2O)n2ncnc(N)c12 [X1] | 300 ± 27 nM | 450 ± 100 nM | 720 ± 24 nM | 150 ± 37 nM | 460 ± 4 nM | 830 ± 71 nM |  |  |  |  |  | 60 to 1100 nM |
